PMC7756341, “Liposomal FRET Assay Identifies Potent Drug‐Like Inhibitors of the Ceramide Transport Protein (CERT)” (Chemistry (Weinheim an Der Bergstrasse, Germany), 2020)

Target: T1, CERT (Homo sapiens, UniProt Q9Y5P4)
T1 construct: made in house; host or cells: E. coli BL21 (DE3), pET-28a(+)
T1 sequence (Q9Y5P4 1-598 isoform Q9Y5P4-2): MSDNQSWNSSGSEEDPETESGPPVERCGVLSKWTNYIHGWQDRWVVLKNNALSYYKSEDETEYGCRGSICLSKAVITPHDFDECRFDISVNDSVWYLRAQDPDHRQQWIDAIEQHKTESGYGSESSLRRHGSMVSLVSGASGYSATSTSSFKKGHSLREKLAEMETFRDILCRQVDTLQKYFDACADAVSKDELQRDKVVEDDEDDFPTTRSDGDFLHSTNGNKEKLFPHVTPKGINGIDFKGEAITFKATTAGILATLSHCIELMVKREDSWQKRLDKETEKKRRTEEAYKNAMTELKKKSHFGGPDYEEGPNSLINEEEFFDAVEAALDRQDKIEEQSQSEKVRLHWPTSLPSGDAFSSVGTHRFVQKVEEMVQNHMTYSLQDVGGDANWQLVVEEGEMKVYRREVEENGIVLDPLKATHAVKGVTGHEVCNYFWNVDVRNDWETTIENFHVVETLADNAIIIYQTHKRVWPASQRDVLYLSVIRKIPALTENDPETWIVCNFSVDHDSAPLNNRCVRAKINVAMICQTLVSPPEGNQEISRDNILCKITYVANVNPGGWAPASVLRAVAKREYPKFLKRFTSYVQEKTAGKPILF
Assay: NR-ceramide fluorescence competition assay
Type: binding
Conditions: 1 μM Nile red ceramide
Source text: Having the identified hits from CERT-transfer assay, we were interested in further understanding the relationship between the CERT-transfer inhibitory activity and CERT-binding affinity. With this goal in mind, we have developed a homogenous competitive assay based on the binding of fluorescently-labeled ceramide to CERT-protein (Fig S6). It’s well known that Nile Red is […]
than in hydrophilic one. Based on this knowledge, we have designed a fluorescently-labeled probe in which the Nile Red-tag was incorporated into the ceramide fatty acid moiety. The NR-ceramide […]
excellent signal-to-noise ratio (28-fold, Fig S7.A). Equilibration takes ~1h of incubation at 30°C.
Furthermore, this assay is a simple mix-and read format and uses only low amounts of fluorophore (1µM) and CERT-protein (12.5µg/assay).
The assay was performed in non-binding black-bottom 96-well microplate (Greiner Bio-One). To each well was added 1µL HPA12 (final concentration 2.5µM) or DMSO, followed by 98 µL of the CERT aliquot (12.5µg/well). After the mixture was incubated for 40 min at 30°C, 1µL NR-ceramide (final concentration 1µM) was added. Controls were triplicates of 10mM Tris.HCl buffer (pH 7.4, 250 mM sucrose) with 2µL DMSO, CERT aliquot (12.5µg/well) with 2µL DMSO, and 1µL NR-ceramide (final concentration 1µM) in 10mM Tris.HCl buffer (pH 7.4, 250 mM sucrose) with 1µL DMSO. The plate was then sealed with transparent Thermowell seal tape and placed in the microplate reader (LABTECH) at 30°C with shaking. The fluorescence was measured from the top over 80min (number of cycles 35, delay 70 sec) with excitation filter 540 nm and emission filter 640 nm. The competitive CERT-binding activity was calculated using the formula: Ix = I(À2-Y)/I0(À1-X), where À1 is the average of the florescence of the control of NR-ceramide in Tris.HCl buffer, X is the average of the fluorescence of the buffer alone, À2 is the fluorescence average of the assay mixture, Y is the fluorescence average of the CERT aliquot with inhibitor/DMSO (Fig […]
It is however lower than the differentiation in the transfer assay (Fig S8B).
3.2 High throughput screening for CERT-activity and Data analysis
In order to validate the performance of developed assay in high-throughput screening format, the hits from ‘confirmed-hit group’ (45 hits) were screened for their competitive CERT-binding activity. The assay was performed as mentioned in the previous sub-section 3.1. Briefly, 1µL tested compound (final concentration 1µM, 2.5µM, 5µM, 10µM) or DMSO for control, and 98 µL CERT stock solution were sequentially added into a non-binding 96-well microplate. The plate was sealed and incubated at 30°C for 40 min, before 1µL NR-ceramide (final concentration 1µM) was added.
Controls per plate were triplicates of 10mM Tris.HCl buffer (pH 7.4, 250 mM sucrose) with 2µL DMSO, CERT aliquot (12.5µg/well) with 2µL DMSO, 1µL NR-ceramide (final concentration 1µM) in 10mM Tris.HCl buffer (pH 7.4, 250 mM sucrose), and HPA12 as a reference inhibitor (final concentration of 1µM, and 2.5µM, 5µM). The plate was sealed with transparent Thermowell seal tape and the assay was allowed to proceed as described above using excitation filter 540 nm and emission filter 640 nm. The competitive CERT-binding activity was calculated using the formula: Ix = I(À2-Y)/I0(À1-X), where À1 is the average of the florescence of the control 1µL NR-ceramide in Tris.HCl buffer, X is the average of the fluorescence of the buffer alone, À2 is the average of the fluorescence of assay mixture treated with tested compound or DMSO, Y is the average of the fluorescence of CERT aliquot with inhibitor/DMSO.

Row | Compound | activity in the NR ceramide competition assay
1 | Cc1cc(C2=NOC(c3cc(Cl)cc(Cl)c3)(C(F)(F)F)C2)ccc1C(=O)NCC(=O)NCC(F)(F)F (centres unmarked) [20D5, Fluralaner] | high activity
2 | CCCC(=O)OCOC(=O)C1=C(C)NC(C)=C(C(=O)OC)C1c1cccc(Cl)c1Cl (centres unmarked) [6B11, Clevidipine butyrate] | high activity
3 | CCCCCCCCCCCC(=O)NC(CO)CC(O)c1ccccc1 (centres unmarked) [HPA-12, N-(3Hydroxy-1-hydroxymethyl-3-phenylpropyl)-dodecamide] | reverted to approximately the initial value

The next lines start with the values.

Row | activity in the NR ceramide competition assay | Compound
4 | very strong competition | CC1=NN(c2ccc(C)c(C)c2)C(=O)/C1=N\Nc1cccc(-c2cccc(C(=O)O)c2)c1O [17C9, Eltrombopag]
5 | high activity | O=C(NC1CCN(CCCCC2(C(=O)NCC(F)(F)F)c3ccccc3-c3ccccc32)CC1)c1ccccc1-c1ccc(C(F)(F)F)cc1 [8E8, lomitapide]
